The NIST ThermoML archive (doi:10.1021/je200833s)
± gives the expanded uncertainty stated by the source.

Experiment: molar enthalpy of vaporization or sublimation
Settings: 298.15 K; Crystal; Calvet

| SMILES | molar enthalpy [kcal/mol] |
| --- | --- |
| Oc1ccccc1I [2-iodophenol] | 18.2 ± 0.669 |
| Oc1ccc(I)cc1 [4-iodophenol] | 21.2 ± 0.717 |
| Oc1cccc(I)c1 [m-iodophenol] | 21.1 ± 0.765 |
